Values quoted from earlier work as cited in patent US6656448B1, “Matrix metalloproteinase inhibitors” (Bristol-Myers Squibb Pharma Company, priority 2000, dated 2003).

Test system: MMP-2 and MMP-9

## O=C(NO)C1(CS(=O)(=O)c2ccc(Oc3ccc(Cl)cc3)cc2)CCOCC1 [Example 13]
  selectivity for MMP-2 and MMP-9: selectivity for MMP-2 and MMP-9
